Laboratory results as given in PMC8145938, “Triphenilphosphonium Analogs of Chloramphenicol as Dual-Acting Antimicrobial and Antiproliferating Agents” (Antibiotics, 2021).
Values after ≈ are worked out from the molar mass of the structure shown. Like-named read-outs stand apart in the source and are kept apart here.

Columns and labels:
Type in all cases: cell-based
[1] = tested on: E. coli BW25113 ΔtolC pDualrep2 reporter strain; assay: pDualrep2 double fluorescent reporter assay on agar plate; settings: compound spotted on agar lawn, overnight 37 °C
From the text: Next, we tested the effects of CAM-C10-TPP and CAM-C14-TPP in bacterial cells using an E. coli ∆tolC-based reporter system, which is designed to screen inhibitors targeting either protein synthesis or DNA replication. In this reporter system, the gene of the far-red fluorescent protein, katushka2S, is inserted downstream of the genetically modified tryptophan attenuator, making it possible to express Katushka2S only upon exposure to ribosome-stalling compounds (Figure 2B, CHL and ERY, red pseudocolor rings).
Reporter strain […] [71] ΔtolC (BW25113) pDualrep2 was used, as previously described. The tested antibiotics, CAM-C10-TPP (10 mM, 1.5 μL), CAM-C14-TPP (10 mM, 1.5 μL), C10-TPP (10 mM, 1.5 μL), C14-TPP (10 mM, 1.5 μL), CAM (10 mM, 1.5 μL), CAM-Ac (10 mM, 1.5 μL), chloramphenicol (CHL, 2 mM, 1 μL), erythromycin (Ery, 7 mM, 1 μL), and levofloxacin (Lev, 70 nM, 1 μL), were applied to an agar plate that already contained a lawn of the reporter strain. After being incubated overnight at 37 °C, the plate was scanned by ChemiDoc (Bio-Rad) in the modes, “Cy3-blot” for RFP and “Cy5-blot” for Katushka2S.

MCF7 = assay: MTT assay growth inhibition; settings: Homo sapiens, 72 h, read-out: 50% growth inhibition concentration (GI50)
Description: (§1) The cytotoxicity of the tested substances was tested using the MTT (3-(4,5-dimethylthiazol-2-yl)-2,5-diphenyltetrazolium bromide) assay, with some modifications, and 2500 cells per well for the MCF7, HEK293T, and A549 cell lines or 4000 cells per well for the VA-13 cell line were plated in 135 µL of DMEM-F12 media (Gibco, Waltham, MA, USA) in a 96-well plate and incubated in the 5% CO2 incubator for first 16 h, without treatment. Then, 15 µL of media-DMSO solutions of the tested substances was added to the cells (the final DMSO concentrations in the media were 1% or less) and treated cells for 72 h with 25 nM–50 µM (eight dilutions) of our substances (triplicate each), and serial DMSO dilutions and doxorubicin were used as controls. The MTT reagent (Paneco LLC, Moscow, Russia) was then added to cells to a final concentration of 0.5 g/L (10× stock solution in PBS was used) and incubated for 2.5 h at 37 °C in the incubator under an atmosphere of 5% CO2. The MTT solution was then discarded, and 140 µL of DMSO (PharmaMed LLC, Krasnodarsky Krai, Russia) was added. The plates were swayed on a shaker (60 rpm) to dissolve the formazan. The absorbance was measured using a microplate reader (VICTOR X5 Light Plate Reader, PerkinElmer, Waltham, MA, USA) at a wavelength of 565 nm (in order to measure formazan concentration). The results were used to construct a dose-response graph and to estimate the CC50 value.

VA13 = assay: MTT assay growth inhibition; settings: VA-13, 72 h, read-out: 50% growth inhibition concentration (GI50)
Description: as §1

HEK293T = assay: MTT assay growth inhibition; settings: Homo sapiens, HEK-293T, 72 h, read-out: 50% growth inhibition concentration (GI50)
Description: as §1

Listeria monocytogenes = assay: MIC determination, broth microdilution
From the text: (§2) Standard laboratory strains of Bacillus subtilis subs. subtilis Cohn 1872, stains BR151, and 168, Staphylococcus aureus subsp. aureus Rosenbach 1884 strains JCM 2151 and entry MC#144 (from the Microorganisms Collection of the Moscow State University), Listeria monocytogenes Pirie 1940, Mycobacterium smegmatis Lehmann and Neumann 1899 (MC#377), and Escherichia coli Castellani and Chalmers 1919, strain JW5503 (with the deletion of tolC gene), which are resistant to the chloramphenicol strains, J53rif, C600rif/pIB55-1, C600rif/pIP162-1, and C600recA naI, were used.
(§3) S. aureus was grown in Bacto Tryptic Soy Broth, L. monocytogenes in Brain Heart Infusion Broth, and E. coli in LB. Bacterial cells were grown at 30 °C or 37 °C in the appropriate medium at a 140 rpm shaking frequency.
(§4) The MICs for CAM-Cn-TPP and Cn-TPP were determined by Mueller-Hinton broth microdilution, as recommended by CLSI in the Methods for Dilution Antimicrobial Susceptibility Tests for Bacteria that Grow Aerobically, Approved Standard, 9th ed., CLSI document M07-A9, using in-house-prepared panels. The compounds were diluted in a 96-well microtiter plate to final concentrations ranging from 0.5 to 360 μM in a 250-µL aliquot of the bacterial suspension, followed by incubation at 37 °C or 30 °C for 18 h. […] The bacterial growth was observed visually alongside OD measurements. The experiments were carried out in triplicate.

Staphylococcus aureus = assay: MIC determination, broth microdilution
From the text: as §2, §3, §4

E. coli ∆tolC = assay: MIC determination, broth microdilution; settings: Escherichia coli
Description: (§5) E. coli ∆tolC CHL-resistant strain harboring plasmid encoding for chloramphenicol acetyltransferase (cat) (pCA24N-LacZ) and the control E. coli ∆tolC strain was used to evaluate the inhibitory effect of the compounds. CHL-resistant strains of B. subtilis pHT01-cat and B. subtilis pHT01-cfr were prepared by means of a transformation of a B. subtilis 168 strain with plasmids harboring the cat and cfr genes (chloramphenicol-florfenicol resistance) gene. The cfr gene encodes for the methyltransferase, which catalyzes the methylation of […] in the 23S rRNA and causes resistance to a variety of ribosome-targeting antibiotics that bind in the A site of the bacterial ribosome.
(§6) A standard laboratory strain of E. coli JW5503, with the deletion of the tolC gene, referred to here as the ∆tolC strain, was used to obtain the ∆tolC pCA24N-LacZ strain by means of transformation with the plasmid pCA24N-LacZ-harboring chloramphenicol acetyltransferase (cat) gene.
as §4

E. coli ∆tolC-CAT = assay: MIC determination, broth microdilution; settings: Escherichia coli
Description: as §5, §6, §4

[2] = Table 1, double-dilution method, read-out: MIC

Row | Compound | induction of reporters (Katushka2S: ribosome stalling; RFP: DNA damage) [1] | GI50 (MCF7) [µM] | GI50 (VA13) [µM] | GI50 (HEK293T) [µM] | MIC (Listeria monocytogenes) [µM] | MIC (Staphylococcus aureus) [µM] | MIC (E. coli ∆tolC) [µM] | MIC (E. coli ∆tolC-CAT) [µM] | MIC (Listeria monocytogenes; [2]) [µM] | MIC (Staphylococcus aureus; [2]) [µM]
1 | O=C(CCCCCCCCCC[P+](c1ccccc1)(c1ccccc1)c1ccccc1)N[C@H](CO)[C@H](O)c1ccc([N+](=O)[O-])cc1 [CAM-C10-TPP, (N-{[(1R,2R)-1,3-dihydroxy-1-(4-nitrophenyl)propan-2-yl]amino}-11-oxoundecyl)(triphenyl)phosphonium bromide] | red pseudocolor rings are observed due to the expression of the fluorescent protein, Katushka2S (but not RFP) | 1 ± 0.1 | 2.8 ± 0.5 | 0.62 ± 0.04 | 6 | 5 | 3 | 25 | – | –
2 | O=C(CCCCCCCCCC[P+](c1ccccc1)(c1ccccc1)c1ccccc1)NCCCC(=O)N[C@H](CO)[C@H](O)c1ccc([N+](=O)[O-])cc1 [CAM-C14-TPP, N-[(1R,2R)-1,3-dihydroxy-1-(4-nitrophenyl)propan-2-yl]-4-(triphenyl)phosphoniumundecanamidobutamide bromide] | red pseudocolor rings are observed due to the expression of the fluorescent protein, Katushka2S (but not RFP) | 5.8 ± 0.8 | 5.2 ± 0.9 | 3.6 ± 0.5 | 17 | 12 | 12.5 | 12.5 | – | –
3 | O=C(N[C@H](CO)[C@H](O)c1ccc([N+](=O)[O-])cc1)C(Cl)Cl [CHL, chloramphenicol] | red pseudocolor rings are observed due to the expression of the fluorescent protein, Katushka2S (but not RFP) | > 50 | > 50 | > 50 | – | – | 2.8 (≈ 0.905 µg/mL) | > 360 | 25 (≈ 8.08 µg/mL) | 60 (≈ 19.4 µg/mL)
